# Experimental data as given in US20200178527A1, “Method for Promoting Growth and Preservation Quality of Agaricus Bisporus” (Nanjing University of Finance & Economics, priority 2018, published 2020).
# How the values were obtained:
# Agaricus bisporus [1] = test: Post-harvest storage (preservation quality) of Agaricus bisporus at 4° C., relative humidity 90-95%; type: in vivo
# Description: Experiment of promoting the growth and preservation quality of Agaricus bisporus (1) An ethanol-water solvent with an ethanol concentration (by volume fraction) of 2% was prepared, and then the methyl jasmonate (MeJA) was dissolved in the ethanol-water solvent to prepare MeJA solutions at concentrations respectively of 10, 50, 100, and 200 μmol/L. (2) The aforementioned MeJA solutions were each used as an inducer and poured into an automatic spraying device, and were each uniformly sprayed onto the surface of Agaricus bisporus when it was grown to the mushroom bud stage, where the spraying dose of 30 mL/m^2 was used as the treatment group. At the same time, the treatments with water and a 2% ethanol solution were as a blank group and a control group, respectively. The subsequent culturing conditions were 17° C. and a humidity of 90%. The Agaricus bisporus was stored under conditions of 4° C. and a relative humidity of 90-95% after harvested, so as to observe its appearance and quality, and the results were as shown in FIG. 2.
# Agaricus bisporus [2] = test: Growth of Agaricus bisporus after spraying MeJA solution at mushroom bud stage; type: in vivo; conditions: for Diameter of Pileus / Diameter of Stipe / Thickness of Pileus / Weight: 30 mL/m^2 spray
# Description: Experiment of promoting the growth and preservation quality of Agaricus bisporus (1) An ethanol-water solvent with an ethanol concentration (by volume fraction) of 2% was prepared, and then the methyl jasmonate (MeJA) was dissolved in the ethanol-water solvent to prepare MeJA solutions at concentrations respectively of 10, 50, 100, and 200 μmol/L.
# (2) The aforementioned MeJA solutions were each used as an inducer and poured into an automatic spraying device, and were each uniformly sprayed onto the surface of Agaricus bisporus when it was grown to the mushroom bud stage, where the spraying dose of 30 mL/m^2 was used as the treatment group. At the same time, the treatments with water and a 2% ethanol solution were as a blank group and a control group, respectively. The subsequent culturing conditions were 17° C. and a humidity of 90%.
# (3) Photographing and sampling are performed every 24 h during the treatment. After sampling, the weight (m) of a single mushroom was weighed and recorded, and the diameter of pileus (a), the diameter of stipe (b) and the thickness of pileus (c) were measured with a microcalliper and recorded to calculate the average values, and the results were shown in Table 1.
# [3] = methyl jasmonate solution of 10-200 μmol/l sprayed at mushroom bud stage
# [4] = 10 μM MeJA, day 1 after treatment
# [5] = 10 μM MeJA, day 2 after treatment
# [6] = 50 μM MeJA, day 1 after treatment
# [7] = 50 μM MeJA, day 2 after treatment
# [8] = 100 μM MeJA, day 1 after treatment
# [9] = 100 μM MeJA, day 2 after treatment
# [10] = 200 μM MeJA, day 1 after treatment
# [11] = 200 μM MeJA, day 2 after treatment
compound,measurement,setting,value
"CC/C=C\CC1C(=O)CCC1CC(=O)OC (stereo not drawn) [MeJA, methyl jasmonate]",preserving effect on Agaricus bisporus,"Agaricus bisporus [1]; 10-200 μmol/L, compared with blank group and ethanol group, storage at 4° C., RH 90-95% (FIG. 2)",significant preserving effect
same,extension of post-harvest storage time,Agaricus bisporus [1]; [3],2 to 4 days
same,Diameter of Pileus,Agaricus bisporus [2]; [4],20.21 ± 0.67 mm
same,Diameter of Stipe,Agaricus bisporus [2]; [4],12.60 ± 0.91 mm
same,Thickness of Pileus,Agaricus bisporus [2]; [4],12.07 ± 0.48 mm
same,Weight,Agaricus bisporus [2]; [4],3.83 ± 0.01 g
same,Diameter of Pileus,Agaricus bisporus [2]; [5],37.04 ± 0.47 mm
same,Diameter of Stipe,Agaricus bisporus [2]; [5],18.17 ± 0.60 mm
same,Thickness of Pileus,Agaricus bisporus [2]; [5],21.49 ± 0.50 mm
same,Weight,Agaricus bisporus [2]; [5],16.27 ± 0.27 g
same,Diameter of Pileus,Agaricus bisporus [2]; [6],24.29 ± 0.75 mm
same,Diameter of Stipe,Agaricus bisporus [2]; [6],13.91 ± 0.66 mm
same,Thickness of Pileus,Agaricus bisporus [2]; [6],14.80 ± 0.49 mm
same,Weight,Agaricus bisporus [2]; [6],6.81 ± 0.09 g
same,Diameter of Pileus,Agaricus bisporus [2]; [7],39.01 ± 0.67 mm
same,Diameter of Stipe,Agaricus bisporus [2]; [7],18.76 ± 0.38 mm
same,Thickness of Pileus,Agaricus bisporus [2]; [7],22.29 ± 0.21 mm
same,Weight,Agaricus bisporus [2]; [7],20.34 ± 0.20 g
same,Diameter of Pileus,Agaricus bisporus [2]; [8],20.52 ± 0.33 mm
same,Diameter of Stipe,Agaricus bisporus [2]; [8],14.14 ± 0.35 mm
same,Thickness of Pileus,Agaricus bisporus [2]; [8],12.28 ± 0.32 mm
same,Weight,Agaricus bisporus [2]; [8],3.69 ± 0.06 g
same,Diameter of Pileus,Agaricus bisporus [2]; [9],31.97 ± 0.78 mm
same,Diameter of Stipe,Agaricus bisporus [2]; [9],16.30 ± 0.82 mm
same,Thickness of Pileus,Agaricus bisporus [2]; [9],18.73 ± 0.82 mm
same,Weight,Agaricus bisporus [2]; [9],11.18 ± 0.10 g
same,Diameter of Pileus,Agaricus bisporus [2]; [10],20.79 ± 0.57 mm
same,Diameter of Stipe,Agaricus bisporus [2]; [10],13.56 ± 0.83 mm
same,Thickness of Pileus,Agaricus bisporus [2]; [10],12.70 ± 0.19 mm
same,Weight,Agaricus bisporus [2]; [10],3.48 ± 0.14 g
same,Diameter of Pileus,Agaricus bisporus [2]; [11],30.71 ± 0.69 mm
same,Diameter of Stipe,Agaricus bisporus [2]; [11],17.94 ± 0.39 mm
same,Thickness of Pileus,Agaricus bisporus [2]; [11],17.5 ± 0.48 mm
same,Weight,Agaricus bisporus [2]; [11],10.10 ± 0.14 g
same,effect on growth of Agaricus bisporus,"Agaricus bisporus [2]; 10-100 μmol/L, compared with blank group and ethanol group (FIG. 1, Table 1)",significant effect of promoting the growth
same,improvement of yield,Agaricus bisporus [2]; [3],20%-25%
